What was measured:
Type in all cases: cell-based
[1] = target: T1, PPARα (Homo sapiens, UniProt Q07869); assay: PPARα-GAL4 chimeric receptor transactivation in HEK-293 cells; settings: PPAR-GAL4 chimeric receptors, transiently transfected HEK-293 cells; ia = inactive at 10 μM
T1 sequence (Q07869 200-468 limits assumed): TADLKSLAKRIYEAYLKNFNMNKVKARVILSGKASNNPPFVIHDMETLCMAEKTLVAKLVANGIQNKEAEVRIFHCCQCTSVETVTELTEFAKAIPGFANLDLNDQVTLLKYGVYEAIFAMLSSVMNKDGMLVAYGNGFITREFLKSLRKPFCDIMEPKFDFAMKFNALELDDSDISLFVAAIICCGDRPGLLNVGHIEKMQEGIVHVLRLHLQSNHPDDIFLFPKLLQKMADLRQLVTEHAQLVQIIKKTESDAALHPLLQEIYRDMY

[2] = target: T2, PPARδ (Homo sapiens, UniProt Q03181); assay: cell-based; settings: PPAR-GAL4 chimeric receptors, transiently transfected HEK-293 cells; ia = inactive at 10 μM; read-out: Transactivation activity EC50 PPARδ
T2 sequence (Q03181 171-441 limits assumed): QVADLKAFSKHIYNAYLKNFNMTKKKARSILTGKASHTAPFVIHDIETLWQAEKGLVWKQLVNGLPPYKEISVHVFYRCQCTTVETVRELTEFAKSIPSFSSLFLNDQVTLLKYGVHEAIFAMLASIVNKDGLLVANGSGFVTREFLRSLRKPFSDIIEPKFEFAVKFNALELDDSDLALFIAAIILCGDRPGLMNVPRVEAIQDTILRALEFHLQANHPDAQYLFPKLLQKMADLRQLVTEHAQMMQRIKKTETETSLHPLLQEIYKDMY

[3] = target: T3, PPARγ (Homo sapiens, UniProt P37231); assay: cell-based; settings: read-out: Transactivation activity EC50 PPARγ
T3 sequence (P37231 238-505 limits assumed): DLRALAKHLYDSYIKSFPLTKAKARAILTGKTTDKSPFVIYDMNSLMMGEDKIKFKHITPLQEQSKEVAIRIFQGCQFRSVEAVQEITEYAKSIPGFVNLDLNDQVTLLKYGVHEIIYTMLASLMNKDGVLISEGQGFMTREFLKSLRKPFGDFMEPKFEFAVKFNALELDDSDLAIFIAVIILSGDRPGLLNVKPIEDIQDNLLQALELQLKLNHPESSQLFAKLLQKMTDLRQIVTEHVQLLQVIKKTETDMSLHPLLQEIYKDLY

[4] = target: T4, VDR (Homo sapiens, UniProt P11473); assay: Nuclear receptor cross-reactivity transactivation, VDR; settings: concentrations up to 300 nM (Figure 7)
T4 construct: expressed in transfected cells
T4 sequence (P11473 1-427): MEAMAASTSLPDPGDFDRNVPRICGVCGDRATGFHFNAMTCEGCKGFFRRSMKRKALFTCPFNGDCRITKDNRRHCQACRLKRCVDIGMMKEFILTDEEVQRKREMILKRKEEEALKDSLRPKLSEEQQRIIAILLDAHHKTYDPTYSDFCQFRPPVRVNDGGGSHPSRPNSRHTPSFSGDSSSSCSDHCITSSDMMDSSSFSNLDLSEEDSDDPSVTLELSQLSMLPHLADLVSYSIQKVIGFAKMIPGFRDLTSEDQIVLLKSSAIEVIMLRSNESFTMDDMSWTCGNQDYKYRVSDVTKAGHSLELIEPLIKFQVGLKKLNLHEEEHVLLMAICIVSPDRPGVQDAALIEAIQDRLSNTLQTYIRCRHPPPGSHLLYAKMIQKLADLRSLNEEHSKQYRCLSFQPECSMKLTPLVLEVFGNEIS

[5] = target: T5, PPARγ (Homo sapiens, UniProt P37231); assay: Nuclear receptor cross-reactivity transactivation, PPARγ; settings: concentrations up to 300 nM (Figure 7)
T5 construct: expressed in transfected cells
T5 sequence (P37231 1-505): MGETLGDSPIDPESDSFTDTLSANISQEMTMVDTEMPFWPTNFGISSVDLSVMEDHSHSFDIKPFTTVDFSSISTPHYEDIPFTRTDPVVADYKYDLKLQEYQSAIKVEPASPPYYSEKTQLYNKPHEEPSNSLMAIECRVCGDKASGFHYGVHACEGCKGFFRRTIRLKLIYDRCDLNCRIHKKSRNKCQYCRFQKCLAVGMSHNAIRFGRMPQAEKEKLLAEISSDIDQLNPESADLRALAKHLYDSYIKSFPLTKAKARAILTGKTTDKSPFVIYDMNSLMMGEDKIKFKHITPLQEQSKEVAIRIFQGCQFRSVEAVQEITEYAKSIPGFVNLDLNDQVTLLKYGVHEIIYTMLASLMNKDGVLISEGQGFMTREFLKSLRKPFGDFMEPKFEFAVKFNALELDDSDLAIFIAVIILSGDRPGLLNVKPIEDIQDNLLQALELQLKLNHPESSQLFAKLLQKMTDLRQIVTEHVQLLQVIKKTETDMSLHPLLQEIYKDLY

[6] = target: T6, LXRα (Homo sapiens, UniProt Q13133); assay: Nuclear receptor cross-reactivity transactivation, LXRα; settings: concentrations up to 300 nM (Figure 7)
T6 construct: expressed in transfected cells
T6 sequence (Q13133 1-447): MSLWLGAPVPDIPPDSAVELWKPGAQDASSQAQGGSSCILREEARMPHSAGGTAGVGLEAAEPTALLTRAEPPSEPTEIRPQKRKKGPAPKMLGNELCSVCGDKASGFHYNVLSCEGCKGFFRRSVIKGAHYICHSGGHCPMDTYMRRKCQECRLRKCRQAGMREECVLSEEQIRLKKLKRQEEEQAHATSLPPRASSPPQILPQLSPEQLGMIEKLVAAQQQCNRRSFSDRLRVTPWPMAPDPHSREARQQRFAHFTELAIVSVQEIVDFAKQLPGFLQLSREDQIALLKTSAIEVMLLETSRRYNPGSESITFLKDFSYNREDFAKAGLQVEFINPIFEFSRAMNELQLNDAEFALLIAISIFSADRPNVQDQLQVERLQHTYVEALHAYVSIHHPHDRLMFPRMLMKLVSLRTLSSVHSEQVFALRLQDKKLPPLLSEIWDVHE

[7] = target: T7, RARα (Homo sapiens, UniProt P10276); assay: Nuclear receptor cross-reactivity transactivation, RARα; settings: concentrations up to 300 nM (Figure 7)
T7 construct: expressed in transfected cells
T7 sequence (P10276 1-462): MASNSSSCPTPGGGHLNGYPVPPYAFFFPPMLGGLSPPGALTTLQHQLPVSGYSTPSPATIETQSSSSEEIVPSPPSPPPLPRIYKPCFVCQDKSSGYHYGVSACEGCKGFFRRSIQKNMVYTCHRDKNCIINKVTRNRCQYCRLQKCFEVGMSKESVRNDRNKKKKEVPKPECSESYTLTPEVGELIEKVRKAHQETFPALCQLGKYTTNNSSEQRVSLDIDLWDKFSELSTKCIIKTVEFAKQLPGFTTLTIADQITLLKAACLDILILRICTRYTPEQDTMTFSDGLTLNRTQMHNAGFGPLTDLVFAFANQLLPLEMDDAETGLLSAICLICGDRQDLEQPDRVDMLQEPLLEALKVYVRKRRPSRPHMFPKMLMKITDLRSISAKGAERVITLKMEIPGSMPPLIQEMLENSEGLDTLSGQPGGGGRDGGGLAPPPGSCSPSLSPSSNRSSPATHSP

[8] = target: T8, RXRα (Homo sapiens, UniProt P19793); assay: Nuclear receptor cross-reactivity transactivation, RXRα; settings: concentrations up to 300 nM (Figure 7)
T8 construct: expressed in transfected cells
T8 sequence (P19793 1-462): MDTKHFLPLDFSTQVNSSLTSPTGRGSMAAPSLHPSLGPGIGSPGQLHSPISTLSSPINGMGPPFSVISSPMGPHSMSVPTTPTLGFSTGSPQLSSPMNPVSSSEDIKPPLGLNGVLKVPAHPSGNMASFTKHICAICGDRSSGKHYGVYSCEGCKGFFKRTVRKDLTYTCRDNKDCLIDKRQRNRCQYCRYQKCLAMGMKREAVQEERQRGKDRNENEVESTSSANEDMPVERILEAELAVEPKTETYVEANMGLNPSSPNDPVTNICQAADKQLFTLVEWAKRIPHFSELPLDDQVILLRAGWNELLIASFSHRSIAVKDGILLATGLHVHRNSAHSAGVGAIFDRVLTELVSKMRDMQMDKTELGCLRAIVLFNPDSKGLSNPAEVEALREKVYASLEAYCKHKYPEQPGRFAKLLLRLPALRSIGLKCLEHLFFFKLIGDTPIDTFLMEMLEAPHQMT

[9] = target: T1, PPARα; assay: PPARα-GAL4 chimeric receptor transactivation in CHO-K1 cells; settings: human PPARα; CHO-K1 cells (footnote of Table 1); read-out: Transactivation activity EC50 PPARα Human
[10] = target: T9, PPARα (Canis lupus familiaris, UniProt Q95N78); assay: Dog PPARα transactivation (species differences); settings: CHO-K1 cells (footnote of Table 1)
T9 construct: expressed in transfected cells
T9 sequence (Q95N78 1-468): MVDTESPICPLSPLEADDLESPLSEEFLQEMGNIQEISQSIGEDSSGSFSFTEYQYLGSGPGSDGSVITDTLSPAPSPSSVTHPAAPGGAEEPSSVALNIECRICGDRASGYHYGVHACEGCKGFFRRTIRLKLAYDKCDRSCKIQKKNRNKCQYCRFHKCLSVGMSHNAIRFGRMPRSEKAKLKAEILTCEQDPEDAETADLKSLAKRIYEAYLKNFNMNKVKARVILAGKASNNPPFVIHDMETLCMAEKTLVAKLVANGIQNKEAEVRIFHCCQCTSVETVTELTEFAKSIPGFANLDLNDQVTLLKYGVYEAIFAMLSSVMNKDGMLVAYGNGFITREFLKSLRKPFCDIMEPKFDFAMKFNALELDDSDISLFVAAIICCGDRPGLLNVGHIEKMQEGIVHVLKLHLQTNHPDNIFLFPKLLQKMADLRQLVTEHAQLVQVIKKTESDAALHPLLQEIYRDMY

[11] = target: T10, PPARα (Rattus norvegicus, UniProt P37230); assay: Rat PPARα transactivation (species differences); settings: CHO-K1 cells (footnote of Table 1)
T10 construct: expressed in transfected cells
T10 sequence (P37230 1-468): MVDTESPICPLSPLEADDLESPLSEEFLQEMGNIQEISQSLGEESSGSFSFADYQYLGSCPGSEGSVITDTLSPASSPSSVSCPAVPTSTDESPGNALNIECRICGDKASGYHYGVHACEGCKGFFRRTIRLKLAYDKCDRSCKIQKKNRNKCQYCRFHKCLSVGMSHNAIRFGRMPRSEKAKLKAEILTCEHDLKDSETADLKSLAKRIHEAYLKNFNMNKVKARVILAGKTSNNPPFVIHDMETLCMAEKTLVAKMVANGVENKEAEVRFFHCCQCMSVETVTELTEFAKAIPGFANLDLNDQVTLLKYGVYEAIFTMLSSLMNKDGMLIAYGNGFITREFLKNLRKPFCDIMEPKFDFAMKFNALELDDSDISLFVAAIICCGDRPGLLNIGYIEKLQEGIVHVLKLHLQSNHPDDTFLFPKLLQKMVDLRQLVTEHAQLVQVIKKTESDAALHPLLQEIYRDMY

SMILES | EC50 [1] [nM] | EC50 [2] [nM] | EC50 [3] [nM] | activation of VDR [4] | activation of PPARγ [5] | activation of LXRα [6] | activation of RARα [7] | activation of RXRα [8] | EC50 [9] [nM] | EC50 [10] [nM] | EC50 [11] [nM]
CCCCOc1ccc(C[C@H](CC)C(=O)O)cc1CNC(=O)c1ccc(C(F)(F)F)cc1F [Compound 65, (S)-2-{3-[(2-fluoro-4-trifluoromethylbenzoylamino)methyl]-4-buthoxy-benzyl}butyric acid] | 250 | 0.91 | 1100 | did not significantly activate | did not significantly activate | did not significantly activate | did not significantly activate | did not significantly activate |  |  | 
CC[C@@H](Cc1ccc(OC)c(C(=O)NCc2ccc(C(F)(F)F)cc2)c1)C(=O)O [KCL, (S)-2-[4-methoxy-3-(4-trifluoromethylbenzylcarbamoyl)phenylmethyl]butyric acid] |  |  |  |  |  |  |  |  | 60 | 160 | 5200
